According to patent publication US20100167933A1, “Piperazine Compounds With Herbicidal Action” (priority 2007, published 2010):

system: APESV (Apera spica-venti, windgrass); test: greenhouse experiment, pre-emergence herbicidal activity against APESV; type: in vivo; conditions: pre-emergence method, application rate 0.5 kg/ha; scale from 0 to 100
Text: The seeds of the test plants were sown separately for each species. For the pre-emergence treatment, the active ingredients, which had been suspended or emulsified in water, were applied directly after sowing by means of finely distributing nozzles. The containers were irrigated gently to promote germination and growth and subsequently covered with transparent plastic hoods until the plants had rooted. This cover caused uniform germination of the test plants, unless this has been impaired by the active ingredients. Depending on the species, the plants were kept at 10-25° C. or 20-35° C. The test period extended over 2 to 4 weeks. During this time, the plants were tended, and their response to the individual treatments was evaluated. Evaluation was carried out using a scale from 0 to 100. 100 means no emergence of the plants, or complete destruction of at least the aerial moieties, and 0 means no damage, or normal course of growth. A good herbicidal activity is given at values of at least 70 and a very good herbicidal activity is given at values of at least 85. The plants used in the greenhouse experiments belonged to the following species: [table]

Row | SMILES | herbicidal activity against APESV
1 | CSC1(Cc2ccccc2)C(=O)N(C)C(=Cc2ccccc2C#N)C(=O)N1C (stereo not shown) [1a/1b, 2-(5-Benzyl-1,4-dimethyl-5-methylsulfanyl-3,6-dioxopiperazin-2-ylidenemethyl)benzonitrile] | good to very good
2 | CN1C(=O)C(Cc2ccccc2)(C(=O)C(F)(F)F)N(C)C(=O)/C1=C/c1ccccc1C#N (stereo not shown) [Example 4, 2-[5-Trifluoroacetyl-5-benzyl-1,4-dimethyl-3,6-dioxopiperazin-(Z)-2-ylidenemethyl]benzonitrile] | good to very good

same assay, conditions: pre-emergence method, application rate 1.0 kg/ha; scale from 0 to 100

Row | SMILES | herbicidal activity against APESV
3 | C=CCC1(Cc2ccccc2)C(=O)N(C)/C(=C\c2ccccc2C#N)C(=O)N1C (stereo not shown) [Example 2, 2-(5-Benzyl-1,4-dimethyl-5-allyl-3,6-dioxo-piperazin-(Z)-2-ylidenemethyl)-benzonitrile] | very good (a very good herbicidal activity is given at values of at least 85)

system: not given; test: not given; conditions: not given

Row | SMILES | melting point [°C]
4 | CN1C(=O)C2(CC2c2ccccc2)N(C)C(=O)/C1=C/c1ccccc1C#N (single isomer, unassigned) [Example 32] | 190
5 | CN1C(=O)C2(CC2c2ccccc2)N(C)C(=O)/C1=C/c1cccnc1C#N (single isomer, unassigned) [Example 34] | 224
6 | CN1C(=O)c2cc3c([N+](=O)[O-])ccc(F)c3n2C(=O)C1(C)Cc1ccccc1 (stereo not shown) [Example 23] | 170 to 172
7 | CN1C(=O)c2cc3cccnc3n2C(=O)C1(C)Cc1ccccc1 (stereo not shown) [Example 24] | 180
8 | CN1C(=O)C2(CC2c2ccccc2)N(C)C(=O)/C1=C/c1ccccc1[N+](=O)[O-] (stereo not shown) [Example 30, 6-[1-(2-Nitrophenyl)-meth-(Z)-ylidene]-4,7-dimethyl-1-phenyl-4,7-diazaspiro[2.5]octane-5,8-dione] | 145
9 | CN1C(=O)C2(CC2c2ccccc2)N(C)C(=O)/C1=C/c1ccccc1Br (stereo not shown) [Example 31] | 78
10 | CN1C(=O)C2(CC2c2ccccc2)N(C)C(=O)/C1=C/c1cccnc1Cl (stereo not shown) [Example 33] | 169
